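1) Cells in 96-well plates. 2) Compound, 48 h, 5 concentrations. 3) Linear interpolation between surrounding doses. 4) Unreached endpoint = highest concentration. TGI: total growth inhibition.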
Columns and labels:
Assay in all cases: DTP human tumour cell line panel, 48 h
K-562 leukemia = test system: K-562 leukemia
HL-60(TB) leukemia = test system: HL-60(TB) leukemia
MDA-MB-435 = test system: MDA-MB-435
IGROV1 ovarian = test system: IGROV1 ovarian
UACC-257 melanoma = test system: UACC-257 melanoma
MCF7 breast = test system: MCF7 breast
A549 NSCLC = test system: A549 NSCLC
NCI-H522 lung = test system: NCI-H522 lung
HS 578T breast = test system: HS 578T breast
786-0 renal = test system: 786-0 renal
CCRF-CEM leukemia = test system: CCRF-CEM leukemia
SK-OV-3 ovarian = test system: SK-OV-3 ovarian

Compound | TGI (K-562 leukemia) | TGI (HL-60(TB) leukemia) | TGI (MDA-MB-435) | TGI (IGROV1 ovarian) | TGI (UACC-257 melanoma) | TGI (MCF7 breast) | TGI (A549 NSCLC) | TGI (NCI-H522 lung) | TGI (HS 578T breast) | TGI (786-0 renal) | TGI (CCRF-CEM leukemia) | TGI (SK-OV-3 ovarian)
CC(=O)[C@@H](C)C(=O)N1C(=O)OC[C@@]12[C@@H]1CC[C@@H](C1)C2(C)C | > 100 µM | > 100 µM | > 100 µM | > 100 µM | > 100 µM | > 100 µM | > 100 µM | > 100 µM | > 100 µM | > 100 µM | > 100 µM | > 100 µM
O=C1CC(c2cccc([N+](=O)[O-])c2)C2(C(=O)NC(=O)NC2=O)C(c2cccc([N+](=O)[O-])c2)C1 (configuration not stated) | > 100 µM | > 100 µM | > 100 µM | > 100 µM | > 100 µM | 44 µM | > 100 µM | > 100 µM | > 100 µM | > 100 µM | > 100 µM | > 100 µM
COC(=O)c1cc2c(cc1Cl)Sc1nnc(Nc3ccc(C)cc3)n1S2(=O)=O | 33.4 µM | 13.8 µM | 21.1 µM | 7.75 µM | 25.6 µM | 11.4 µM | 35.8 µM | 10.3 µM | 32.7 µM | 24.1 µM | 36.1 µM | 24.1 µM
CCOC(=O)c1c(N2CCOCC2)[nH]c(=O)c(C(c2c(Cl)cccc2Cl)c2c(O)c(C(=O)OCC)c(N3CCOCC3)[nH]c2=O)c1O | 6.55 µM | 4.37 µM | 12.1 µM | 15 µM | 18.7 µM | 6.63 µM | 32.5 µM | 3.72 µM | 19.4 µM | 6.47 µM | 3.56 µM | 24.9 µM
CSc1nnc(SC)nn1 | 27.4 µM | 11.6 µM | 32.4 µM | 31 µM | 30.3 µM | 32.7 µM | 43.3 µM | 31.6 µM | 77.1 µM | 27.1 µM | 4.53 µM | 49 µM
CO/C=C(/C(=O)OC)c1ccccc1COc1cccc(C(F)(F)F)c1 | > 100 µM | 3.99 µM | 23.1 µM | 47.3 µM | 21.3 µM | > 100 µM | > 100 µM | 5.86 µM | > 100 µM | > 100 µM | 27.3 µM | > 100 µM
C1=Cc2cc3c(c4nccc(c24)N1)OCO3 | 98.9 µM | > 100 µM | > 56.1 µM | 8.24 µM | 50.7 µM | 16.1 µM | > 41.7 µM | 26.2 µM | 32.5 µM | 21.2 µM | > 100 µM | 55.9 µM
CN(C)CCCN=c1c2ccccc2n(O)c2ccccc12 | > 100 µM | > 100 µM | > 100 µM | > 100 µM | > 100 µM | > 100 µM | > 100 µM | > 100 µM | > 100 µM | > 100 µM | > 100 µM | > 100 µM
O=C(Nc1nnc(-c2ccc(Cl)cc2)o1)C(SC(=S)N1CCOCC1)c1ccccc1 (configuration not stated) | > 100 µM | 25.7 µM | > 100 µM | > 100 µM | > 100 µM | > 100 µM | 81.3 µM | 48.9 µM | > 100 µM | > 100 µM | > 100 µM | > 100 µM
CCCCCCCCCCCC(=O)OCC(C[As](=O)(O)O)OC(=O)CCCCCCCCCCC (configuration not stated) | > 38.9 µM | > 25 µM | 9.91 µM | 3.5 µM | 21.9 µM | 13 µM | 25.8 µM | 4.33 µM | 13.3 µM | 26.7 µM | 30.8 µM | 30.1 µM
CC1(C)C[C@@H]2C1CCC1(C)CC2(O)CC[C@H]1O (some centres not stated) | > 100 µM | > 100 µM | > 100 µM | > 100 µM | > 100 µM | > 100 µM | > 100 µM | > 100 µM | > 100 µM | > 100 µM | > 100 µM | > 100 µM

— PubChem BioAssay (NCI)
